Experimental data reported in ChEMBL document CHEMBL1201862, “PubChem BioAssay data set” (2004).
Blank lines part the entries; values can stand above or below the molecule they belong to. Activity calls are given as the source filed them.

Experiments:
[1] = molecular target: T1, Tyrosine-protein phosphatase non-receptor type 22 (Homo sapiens, UniProt Q9Y2R2); experiment: PubChem AID 2140
T1 sequence (Q9Y2R2 whole entry): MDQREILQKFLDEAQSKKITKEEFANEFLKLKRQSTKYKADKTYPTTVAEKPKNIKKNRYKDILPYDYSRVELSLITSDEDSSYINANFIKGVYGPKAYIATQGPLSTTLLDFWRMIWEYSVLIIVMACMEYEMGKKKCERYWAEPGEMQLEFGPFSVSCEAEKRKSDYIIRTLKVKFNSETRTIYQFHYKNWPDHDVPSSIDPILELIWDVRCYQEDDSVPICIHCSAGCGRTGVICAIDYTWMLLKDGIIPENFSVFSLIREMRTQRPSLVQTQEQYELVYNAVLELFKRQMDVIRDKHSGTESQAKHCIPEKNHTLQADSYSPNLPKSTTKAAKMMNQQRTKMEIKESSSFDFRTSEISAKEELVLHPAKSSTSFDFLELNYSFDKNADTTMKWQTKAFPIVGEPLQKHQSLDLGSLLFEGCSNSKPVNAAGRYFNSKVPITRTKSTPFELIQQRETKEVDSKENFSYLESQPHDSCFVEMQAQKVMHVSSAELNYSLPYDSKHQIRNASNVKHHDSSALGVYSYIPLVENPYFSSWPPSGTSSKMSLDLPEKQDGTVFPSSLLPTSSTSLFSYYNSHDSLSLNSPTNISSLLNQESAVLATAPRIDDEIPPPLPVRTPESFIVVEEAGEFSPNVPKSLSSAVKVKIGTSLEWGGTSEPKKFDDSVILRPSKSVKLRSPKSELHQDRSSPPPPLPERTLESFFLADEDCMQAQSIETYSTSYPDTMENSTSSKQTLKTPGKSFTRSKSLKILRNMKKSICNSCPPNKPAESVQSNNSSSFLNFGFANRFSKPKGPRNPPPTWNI

[2] = molecular target: 72 kDa type IV collagenase (Homo sapiens, UniProt P08253); experiment: Dose Response validation of uHTS RPN11 inhibitor hits using a MMP-2 Fluorescence assay.; format: functional
Chain of 72 kDa type IV collagenase (P08253 whole entry): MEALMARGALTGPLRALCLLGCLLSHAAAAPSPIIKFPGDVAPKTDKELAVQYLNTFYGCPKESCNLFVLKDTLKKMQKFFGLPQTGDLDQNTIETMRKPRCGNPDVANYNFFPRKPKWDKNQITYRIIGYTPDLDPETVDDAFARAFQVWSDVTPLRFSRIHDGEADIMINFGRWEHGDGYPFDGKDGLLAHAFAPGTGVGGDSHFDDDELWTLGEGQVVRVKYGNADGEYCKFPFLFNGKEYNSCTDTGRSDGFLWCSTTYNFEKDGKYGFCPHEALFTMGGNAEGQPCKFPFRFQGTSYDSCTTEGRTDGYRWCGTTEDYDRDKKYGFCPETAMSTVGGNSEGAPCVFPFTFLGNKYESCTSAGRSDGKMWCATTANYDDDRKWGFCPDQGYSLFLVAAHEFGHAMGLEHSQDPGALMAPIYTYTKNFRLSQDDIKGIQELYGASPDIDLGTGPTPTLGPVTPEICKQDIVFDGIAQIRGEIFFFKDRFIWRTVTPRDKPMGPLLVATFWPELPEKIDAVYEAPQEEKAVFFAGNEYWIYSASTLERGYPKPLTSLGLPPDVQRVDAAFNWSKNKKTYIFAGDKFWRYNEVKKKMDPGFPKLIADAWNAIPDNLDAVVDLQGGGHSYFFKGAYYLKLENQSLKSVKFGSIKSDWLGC

[3] = molecular target: T1, Tyrosine-protein phosphatase non-receptor type 22; format: functional
[4] = molecular target: Envelope glycoprotein gp160 (Human immunodeficiency virus 1, UniProt Q6QLK5); experiment: cell-free HIV fusion peptide-binding blockers – biochemical, uHTS, fluorescence dequenching, […] (AID 1986)
[5] = molecular target: T1, Tyrosine-protein phosphatase non-receptor type 22; experiment: LYP1 Fluorescent Assay using OMFP substrate for In Vitro dose response studies. [Related pubchem assays (depositor defined):AID1779, AID1784, AID435024]
[6] = molecular target: T2, Tyrosine-protein phosphatase non-receptor type 7 (Homo sapiens, UniProt P35236); experiment: inhibition of hematopoietic tyrosine phosphatase HePTP – biochemical, set 2, SAR follow-up (AID 449736); format: functional
T2 sequence (P35236 whole entry): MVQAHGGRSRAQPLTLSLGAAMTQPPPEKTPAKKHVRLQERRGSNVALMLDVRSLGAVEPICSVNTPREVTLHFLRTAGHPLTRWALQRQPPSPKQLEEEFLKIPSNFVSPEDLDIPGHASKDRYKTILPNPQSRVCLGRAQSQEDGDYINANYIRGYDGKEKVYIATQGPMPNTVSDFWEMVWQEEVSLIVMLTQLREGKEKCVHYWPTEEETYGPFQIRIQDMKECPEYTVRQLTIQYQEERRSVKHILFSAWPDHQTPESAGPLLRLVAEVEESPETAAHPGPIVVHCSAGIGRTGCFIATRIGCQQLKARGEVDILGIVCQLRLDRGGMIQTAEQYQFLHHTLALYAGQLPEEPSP

[7] = molecular target: T3, Zinc finger protein mex-5 (Caenorhabditis elegans, UniProt Q9XUB2); experiment: potency of MEX-5 RNA-binding blockers – biochemical, C. elegans, fluorescence polarization, dose response (AID 1960)
T3 sequence (Q9XUB2 whole entry): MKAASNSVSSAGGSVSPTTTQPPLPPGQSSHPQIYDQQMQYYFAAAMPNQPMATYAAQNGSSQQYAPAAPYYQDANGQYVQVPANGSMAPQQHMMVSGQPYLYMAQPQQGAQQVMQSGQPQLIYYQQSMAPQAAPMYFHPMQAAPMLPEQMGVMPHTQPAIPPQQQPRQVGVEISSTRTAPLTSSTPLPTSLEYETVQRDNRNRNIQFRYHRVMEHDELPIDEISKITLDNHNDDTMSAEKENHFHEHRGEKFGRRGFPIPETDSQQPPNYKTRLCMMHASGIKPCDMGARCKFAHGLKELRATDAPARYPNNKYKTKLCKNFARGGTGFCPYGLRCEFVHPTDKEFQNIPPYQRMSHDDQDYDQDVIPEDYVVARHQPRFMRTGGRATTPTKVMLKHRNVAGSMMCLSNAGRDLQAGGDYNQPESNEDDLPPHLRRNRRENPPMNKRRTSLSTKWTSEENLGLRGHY

[8] = CCR5-tropic HIV-1 fusion blockers – cell-based, CCR5-tropic Env, dose response (AID 2279); format: functional
[9] = molecular target: T1, Tyrosine-protein phosphatase non-receptor type 22; experiment: PubChem AID 2135
[10] = molecular target: T4, RNA-binding protein pos-1 (Caenorhabditis elegans, UniProt G5EF15); experiment: disruptors of C. elegans POS-1 RNA interaction – biochemical, fluorescence polarization, dose response (AID 1964);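 also: purified POS-1 fused to maltose binding protein made in E. coli; potency of compounds blocking POS-1 binding to fluorescent RNA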
T4 sequence (G5EF15 whole entry): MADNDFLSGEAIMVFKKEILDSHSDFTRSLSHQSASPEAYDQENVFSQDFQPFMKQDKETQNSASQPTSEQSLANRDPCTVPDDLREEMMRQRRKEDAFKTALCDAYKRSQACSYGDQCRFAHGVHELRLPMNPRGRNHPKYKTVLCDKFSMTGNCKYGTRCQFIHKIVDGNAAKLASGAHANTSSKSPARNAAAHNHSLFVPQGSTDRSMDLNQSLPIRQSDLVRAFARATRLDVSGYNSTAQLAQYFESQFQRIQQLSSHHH

[11] = molecular target: 26S proteasome non-ATPase regulatory subunit 14 (Homo sapiens, UniProt O00487); experiment: inhibition of proteasome subunit RPN11 – biochemical, fluorescence polarization, uHTS hits, confirmation (AID 602368); format: functional
Chain of 26S proteasome non-ATPase regulatory subunit 14 (O00487 whole entry): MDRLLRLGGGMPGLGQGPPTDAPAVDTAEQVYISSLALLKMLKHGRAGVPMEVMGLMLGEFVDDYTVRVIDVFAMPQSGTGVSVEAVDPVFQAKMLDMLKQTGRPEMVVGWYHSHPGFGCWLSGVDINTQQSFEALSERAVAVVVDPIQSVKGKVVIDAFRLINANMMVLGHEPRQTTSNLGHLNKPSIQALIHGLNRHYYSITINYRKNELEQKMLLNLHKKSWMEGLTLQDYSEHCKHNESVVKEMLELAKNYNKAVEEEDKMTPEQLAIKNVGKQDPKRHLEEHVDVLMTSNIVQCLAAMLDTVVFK

[12] = molecular target: Prothrombin (Bos taurus, UniProt P00735); experiment: thrombin protease inhibitors – biochemical, fluorescence polarization, uHTS hits, dose response (AID 602369); format: functional
[13] = molecular target: Tyrosine-protein phosphatase non-receptor type 12 (Homo sapiens, UniProt Q05209); experiment: SAR Selectivity Analysis of small molecule inhibitors of PEST using pCAP in a fluorescence assay. [Related pubchem assays (depositor defined):AID1779, AID1784, AID2135]; format: functional
[14] = molecular target: T1, Tyrosine-protein phosphatase non-receptor type 22; experiment: PTPN22 lymphoid phosphatase activity blockers – biochemical, fluorescence intensity, uHTS (AID 1779)
[15] = molecular target: T2, Tyrosine-protein phosphatase non-receptor type 7; experiment: HTS HePTP Fluorescent Assay using OMFP substrate for In Vitro dose response studies. [Related pubchem assays (depositor defined):AID1059, AID1077, AID1784, AID2068, AID2085, AID435032, AID521]; format: functional
[16] = molecular target: T1, Tyrosine-protein phosphatase non-receptor type 22; experiment: SAR LYP1 Fluorescent Assay using OMFP substrate for In Vitro dose response studies - Set 2. [Related pubchem assays (depositor defined):AID1779, AID1784, AID2140, AID449726, AID488869]; format: functional
[17] = molecular target: T1, Tyrosine-protein phosphatase non-receptor type 22; experiment: SAR LYP1 Fluorescent Assay using OMFP substrate for In Vitro dose response studies - Set 3. [Related pubchem assays (depositor defined):AID1779, AID1784, AID2140, AID2686]; format: functional
[18] = molecular target: T1, Tyrosine-protein phosphatase non-receptor type 22; experiment: SAR LYP1 Fluorescent Assay using pCAP substrate for In Vitro dose response studies - Set 2. [Related pubchem assays (depositor defined):AID1779, AID1784, AID2135, AID449727]; format: functional
[19] = molecular target: T2, Tyrosine-protein phosphatase non-receptor type 7; format: functional
[20] = molecular target: T5, Kappa-type opioid receptor (Homo sapiens, UniProt P41145); experiment: SAR analysis of small molecule agonists of the kappa opioid receptor via a luminescent beta-arrestin assay - Set 3. [Related pubchem assays (depositor defined):AID1777, AID1785, AID1786, AID1966, AID2133, AID2136, AID2284, AID2500]; format: functional
T5 sequence (P41145 whole entry): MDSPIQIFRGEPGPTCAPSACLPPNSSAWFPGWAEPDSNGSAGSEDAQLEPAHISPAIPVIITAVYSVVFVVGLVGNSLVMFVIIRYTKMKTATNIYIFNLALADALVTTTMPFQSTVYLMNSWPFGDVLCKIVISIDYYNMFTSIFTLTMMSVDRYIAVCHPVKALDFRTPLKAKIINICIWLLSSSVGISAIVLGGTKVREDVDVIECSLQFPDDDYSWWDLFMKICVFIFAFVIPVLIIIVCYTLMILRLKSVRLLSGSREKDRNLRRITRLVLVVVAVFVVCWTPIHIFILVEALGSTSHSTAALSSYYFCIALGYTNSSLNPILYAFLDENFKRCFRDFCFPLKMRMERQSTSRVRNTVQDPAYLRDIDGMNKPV

[21] = molecular target: T6, Delta-type opioid receptor (Homo sapiens, UniProt P41143); experiment: delta opioid receptor blockers – image-based, SAR follow-up (AID 2357); format: functional
T6 sequence (P41143 whole entry): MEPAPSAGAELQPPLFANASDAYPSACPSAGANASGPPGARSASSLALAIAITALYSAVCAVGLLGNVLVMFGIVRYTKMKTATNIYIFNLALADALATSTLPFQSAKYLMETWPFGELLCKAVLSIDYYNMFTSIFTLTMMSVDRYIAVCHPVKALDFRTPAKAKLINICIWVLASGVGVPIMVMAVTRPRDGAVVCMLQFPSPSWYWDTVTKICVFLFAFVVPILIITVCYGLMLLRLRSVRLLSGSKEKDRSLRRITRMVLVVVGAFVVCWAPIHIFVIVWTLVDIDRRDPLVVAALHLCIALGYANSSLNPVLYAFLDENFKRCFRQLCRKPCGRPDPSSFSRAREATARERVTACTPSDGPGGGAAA

[22] = molecular target: T7, Mu-type opioid receptor (Homo sapiens, UniProt P35372); experiment: mu opioid receptor activators, image-based, SAR follow-up (AID 2352); format: functional
T7 sequence (P35372 whole entry): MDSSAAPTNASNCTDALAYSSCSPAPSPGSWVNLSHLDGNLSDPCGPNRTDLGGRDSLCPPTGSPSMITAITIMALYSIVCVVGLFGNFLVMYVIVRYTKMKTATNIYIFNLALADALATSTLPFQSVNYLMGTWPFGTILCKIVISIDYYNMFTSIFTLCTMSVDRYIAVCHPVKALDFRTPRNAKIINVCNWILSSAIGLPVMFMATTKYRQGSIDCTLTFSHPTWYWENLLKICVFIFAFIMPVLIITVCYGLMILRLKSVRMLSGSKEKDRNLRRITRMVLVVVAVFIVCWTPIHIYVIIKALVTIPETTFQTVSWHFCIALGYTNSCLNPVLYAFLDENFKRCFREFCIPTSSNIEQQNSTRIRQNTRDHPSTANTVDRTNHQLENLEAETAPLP

[23] = molecular target: T5, Kappa-type opioid receptor; experiment: kappa opioid receptor activation potency – imaging, image-based, SAR follow-up (AID 2359); format: functional
[24] = molecular target: T5, Kappa-type opioid receptor; experiment: kappa opioid receptor blockers, image-based, SAR follow-up (AID 2348); format: functional
[25] = molecular target: T7, Mu-type opioid receptor; experiment: mu opioid receptor blockers – image-based, SAR follow-up (AID 2420); format: functional;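 also: compounds added before stimulation of receptor with agonist DAMGO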
[26] = molecular target: T5, Kappa-type opioid receptor; experiment: SAR analysis of small molecule agonists of the kappa opioid receptor via a luminescent beta-arrestin assay. [Related pubchem assays (depositor defined):AID1777, AID1786, AID1966, AID2133, AID2136, AID2348, AID2352, AID2357, AID2359, AID2370, AID2420, AID2478, AID2491, AID2492, AID2493, AID2497, AID2498, AID2500, AID449737, AID488822, AID488842]; format: functional
[27] = molecular target: T6, Delta-type opioid receptor; experiment: DOR agonists, SAR follow-up, image-based (AID 2370); format: functional
[28] = molecular target: Phosphomannomutase 2 (Homo sapiens, UniProt O15305); experiment: Counter screen SAR assay for PMM2 inhibitors via a fluorescence intensity assay. [Related pubchem assays (depositor defined):AID1545, AID1574]
Chain of Phosphomannomutase 2 (O15305 whole entry): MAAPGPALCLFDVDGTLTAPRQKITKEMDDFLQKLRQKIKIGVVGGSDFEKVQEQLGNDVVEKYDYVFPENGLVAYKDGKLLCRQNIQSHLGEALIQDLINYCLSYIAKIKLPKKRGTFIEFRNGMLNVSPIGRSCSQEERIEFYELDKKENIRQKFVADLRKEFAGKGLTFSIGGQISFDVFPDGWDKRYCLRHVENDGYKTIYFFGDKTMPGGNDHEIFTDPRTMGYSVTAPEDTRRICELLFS

[29] = molecular target: T8, Mannose-6-phosphate isomerase (Homo sapiens, UniProt P34949); experiment: phosphomannose isomerase inhibition – biochemical, fluorescence intensity, confirmation (AID 1535)
T8 sequence (P34949 whole entry): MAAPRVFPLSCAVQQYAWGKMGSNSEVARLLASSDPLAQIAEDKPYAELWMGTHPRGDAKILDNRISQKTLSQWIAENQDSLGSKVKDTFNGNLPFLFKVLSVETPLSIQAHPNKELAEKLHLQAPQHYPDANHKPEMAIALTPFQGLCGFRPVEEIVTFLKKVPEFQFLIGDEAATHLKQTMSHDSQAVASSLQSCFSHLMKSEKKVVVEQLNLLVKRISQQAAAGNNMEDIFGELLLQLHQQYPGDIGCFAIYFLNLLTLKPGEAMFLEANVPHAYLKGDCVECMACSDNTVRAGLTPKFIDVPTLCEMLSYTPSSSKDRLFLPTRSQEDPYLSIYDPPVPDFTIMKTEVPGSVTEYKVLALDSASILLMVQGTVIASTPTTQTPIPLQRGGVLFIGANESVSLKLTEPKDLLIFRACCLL

[30] = molecular target: Nucleotide-binding oligomerization domain-containing protein 2 (Homo sapiens, UniProt Q9HC29); experiment: PubChem AID 2334; format: functional
Chain of Nucleotide-binding oligomerization domain-containing protein 2 (Q9HC29 whole entry, the tested form may be a part): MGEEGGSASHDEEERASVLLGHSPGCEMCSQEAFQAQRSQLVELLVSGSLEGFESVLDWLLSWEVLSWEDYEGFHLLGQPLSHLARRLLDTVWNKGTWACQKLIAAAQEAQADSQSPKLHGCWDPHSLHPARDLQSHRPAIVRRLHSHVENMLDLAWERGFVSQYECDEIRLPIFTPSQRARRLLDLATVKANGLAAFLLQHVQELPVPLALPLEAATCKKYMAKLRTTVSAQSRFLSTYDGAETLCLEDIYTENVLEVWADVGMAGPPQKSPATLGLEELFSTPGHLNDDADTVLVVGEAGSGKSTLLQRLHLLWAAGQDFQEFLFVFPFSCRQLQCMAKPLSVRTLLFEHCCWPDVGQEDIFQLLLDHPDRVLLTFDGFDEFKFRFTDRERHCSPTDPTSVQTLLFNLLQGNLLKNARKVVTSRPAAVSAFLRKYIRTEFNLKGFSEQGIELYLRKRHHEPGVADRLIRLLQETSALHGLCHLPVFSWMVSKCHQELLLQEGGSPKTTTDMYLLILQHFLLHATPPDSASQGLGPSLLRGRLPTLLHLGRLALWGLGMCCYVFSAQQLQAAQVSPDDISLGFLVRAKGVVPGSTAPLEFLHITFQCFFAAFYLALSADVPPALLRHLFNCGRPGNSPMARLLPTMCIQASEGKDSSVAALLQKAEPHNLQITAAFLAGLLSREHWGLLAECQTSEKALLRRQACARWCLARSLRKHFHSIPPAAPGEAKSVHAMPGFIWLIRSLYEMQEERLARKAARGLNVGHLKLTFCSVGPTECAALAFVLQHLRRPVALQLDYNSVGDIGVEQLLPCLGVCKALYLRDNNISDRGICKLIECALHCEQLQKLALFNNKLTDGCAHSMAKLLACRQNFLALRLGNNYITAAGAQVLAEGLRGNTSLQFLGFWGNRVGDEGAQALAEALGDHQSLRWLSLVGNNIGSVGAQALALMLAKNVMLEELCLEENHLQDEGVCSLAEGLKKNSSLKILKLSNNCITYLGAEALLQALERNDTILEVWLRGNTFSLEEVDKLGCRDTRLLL

[31] = system: HEK293; experiment: cells; conditions: Homo sapiens;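 also: cells exposed to compound for 14 hours overnight before viability readout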
[32] = molecular target: Nucleotide-binding oligomerization domain-containing protein 1 (Homo sapiens, UniProt Q9Y239); experiment: blockers of NOD1 pathway activity – revised, SAR follow-up (AID 2333); format: functional
Chain of Nucleotide-binding oligomerization domain-containing protein 1 (Q9Y239 whole entry, the tested form may be a part): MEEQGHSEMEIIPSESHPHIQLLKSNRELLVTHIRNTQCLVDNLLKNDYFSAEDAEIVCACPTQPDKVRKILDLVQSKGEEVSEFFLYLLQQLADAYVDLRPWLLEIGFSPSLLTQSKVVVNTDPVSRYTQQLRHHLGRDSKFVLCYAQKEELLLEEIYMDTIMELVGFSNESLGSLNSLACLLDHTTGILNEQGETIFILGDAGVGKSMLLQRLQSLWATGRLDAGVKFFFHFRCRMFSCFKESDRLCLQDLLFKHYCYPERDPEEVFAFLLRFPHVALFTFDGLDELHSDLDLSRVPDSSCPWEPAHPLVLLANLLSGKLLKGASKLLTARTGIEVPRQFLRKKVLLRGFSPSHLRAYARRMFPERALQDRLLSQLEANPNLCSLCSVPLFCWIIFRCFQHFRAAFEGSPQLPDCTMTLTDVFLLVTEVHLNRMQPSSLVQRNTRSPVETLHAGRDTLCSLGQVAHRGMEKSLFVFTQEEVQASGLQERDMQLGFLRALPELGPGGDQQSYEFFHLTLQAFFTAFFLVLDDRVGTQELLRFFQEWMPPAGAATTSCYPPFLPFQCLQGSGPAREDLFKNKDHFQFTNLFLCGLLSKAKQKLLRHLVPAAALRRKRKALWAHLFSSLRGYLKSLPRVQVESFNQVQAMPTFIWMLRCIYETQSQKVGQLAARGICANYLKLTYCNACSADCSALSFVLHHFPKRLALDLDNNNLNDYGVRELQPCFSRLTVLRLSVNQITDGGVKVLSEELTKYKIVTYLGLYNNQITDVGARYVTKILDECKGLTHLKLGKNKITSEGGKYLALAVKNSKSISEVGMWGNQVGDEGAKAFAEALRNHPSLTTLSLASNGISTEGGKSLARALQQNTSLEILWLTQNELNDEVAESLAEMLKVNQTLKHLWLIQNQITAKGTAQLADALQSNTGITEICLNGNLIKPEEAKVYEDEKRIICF

[33] = molecular target: Tumor necrosis factor (Homo sapiens, UniProt P01375); experiment: analog potency on TNFa NF-kB signaling – cell-based, revised, SAR follow-up (AID 2337); format: functional
Chain of Tumor necrosis factor (P01375 whole entry): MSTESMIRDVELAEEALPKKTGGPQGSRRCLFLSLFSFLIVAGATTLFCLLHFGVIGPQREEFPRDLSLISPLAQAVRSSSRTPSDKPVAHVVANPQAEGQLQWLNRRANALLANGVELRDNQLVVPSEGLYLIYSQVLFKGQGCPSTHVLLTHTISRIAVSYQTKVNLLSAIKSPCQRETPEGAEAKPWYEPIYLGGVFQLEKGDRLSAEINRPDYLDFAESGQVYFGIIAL

[34] = molecular target: Exodeoxyribonuclease V (Escherichia coli (strain K12), UniProt P04993+P07648+P08394); experiment: RecBCD inhibition via phage-restricted bacterial growth – absorbance, V66 E. coli, mutant T4 phage, counter-screen for AddAB inhibitor project, dose response (AID 492957); format: functional, cell-based, Escherichia coli str. K-12 substr. MG1655
[35] = Counterscreen for AddAB inhibitors: absorbance-based bacterial cell-based high throughput dose response assay for inhibitors of bacterial viability. [Related pubchem assays (depositor defined):AID435030, AID449728, AID449731, AID488942, AID488955, AID488956]; format: functional

SMILES: O=C(O)CCCN1C(=O)/C(=C/c2ccc(-c3nc4ccccc4s3)o2)SC1=S
IC50 [1]: 16 µM (active)
IC50 [2]: > 100 µM (inactive)
IC50 [3]: 4.77 µM (active)
IC50 [4]: 11.7 µM (active)
IC50 [5]: 6.14 µM (active)
IC50 [6]: 0.608 µM (active)
EC50 [7]: 20.4 µM (active)
IC50 [8]: 4.43 µM (active)
IC50 [9]: 3.69 µM (active)
EC50 [10]: 3.39 µM (active)
IC50 [11]: 5.26 µM (active)
IC50 [12]: 34.5 µM (active)
IC50 [13]: 1.63 µM (active)
IC50 [14]: 7.71 µM (active)
IC50 [15]: 24.6 µM (active)
IC50 [16]: 3.92 µM (active)
IC50 [17]: 11.2 µM (active)
IC50 [18]: 3.1 µM (active)
IC50 [19]: 11.5 µM (active)

SMILES: O=C(Nc1nc2ccccc2n1Cc1ccccc1Cl)C1CCCCC1
IC50 [30]: > 20 µM (inactive)
IC50 [31]: > 20 µM (inactive)
IC50 [32]: > 20 µM (inactive)
IC50 [33]: > 20 µM (inactive)

SMILES: Cc1cccnc1NC(=O)c1ccc([N+](=O)[O-])o1
IC50 [34]: > 119 µM (inactive)
IC50 [35]: 29.9 µM (inactive)

Second part, the molecule after the results:

EC50 [20]: > 20 µM (inactive)
SMILES: c1ccc(CSc2nnc(-c3ccccn3)n2Cc2ccccc2)cc1

IC50 [21]: > 32 µM (inactive)
EC50 [22]: > 32 µM (inactive)
EC50 [23]: > 32 µM (inactive)
IC50 [24]: > 32 µM (inactive)
IC50 [25]: > 32 µM (inactive)
EC50 [26]: > 10 µM (inactive)
EC50 [27]: > 32 µM (inactive)
SMILES: Cc1ccc2[nH]c(=O)c(CN(C)C(=O)c3ccccn3)cc2c1

IC50 [28]: > 100 µM (inactive)
IC50 [29]: > 50 µM (inactive)
SMILES: CCOc1ccc(-c2nnc(S)o2)cc1
